In patent US20220153732A1, “PROTEIN SECRETION INHIBITORS” (KEZAR LIFE SCIENCES, priority 2019, published 2022) one finds IC50 and EC50 data, which are given here for 14 compounds.

As usually defined, the EC50 is the concentration giving half of the maximal effect.

Type in all cases: cell-based
Assay [1] concerns PD1-ss+10aa/Gaussia Luciferase. Briefly: Dox-Induced PD1-ss-Gluc Assay. On the procedure:
(§1) Transfected cells were selected for resistance to the selectable markers Hygromycin and Blasticidin to create a stable cell line that contained the PD1-ss+10aa/Gaussia Luciferase cDNA insert whose expression was regulated under the T-REx™ system. The day before assay, cells were trypsinized and plated in 384-well tissue culture plates. The next day, compound dilutions in DMSO/media containing doxycycline were added to the wells and incubated at 37° C., 5% CO2.
(§2) For chemical structures that include one or more stereoisomers, but are illustrated without indicating stereochemistry, the assay data refers to a mixture of stereoisomers.

Assay [2] has as its system TNFα-FL/Gaussia Luciferase. Briefly: Dox Induced TNFα-FL-Gluc Assay. On the procedure: as §1, with “TNFα-FL/Gaussia” for “PD1-ss+10aa/Gaussia”, “T-RExTM” for “T-REx™”, “CO2. […] For chemical structures that include one or more stereoisomers, but are illustrated without indicating stereochemistry, the assay data refers to a mixture of stereoisomers.” for “CO2.”
In assay [3] the test system is human multiple myeloma cell line U266B1. Briefly: U266 Cell Viability Assay. The following applies: read-out: 48 hr U266 Viability Celltiter-Glo: Mean EC50. The procedure: Cells were plated in 384-well tissue culture plates and treated with compound dilutions in DMSO/media. Plates were incubated at 37° C., 5% CO2 for 48 hours. After 48 hours, Celltiter-Glo® (Promega) was added to each well and luciferase signal was quantified using Tecan Infinite M1000 Pro for cell viability determination.
as §2
In general terms: Cellular ATP, detected with luciferase, serves as a proxy for viable cell number.

In assay [4] the test system is HER3-ss+4aa/Gaussia Luciferase. The assay is described as follows: Dox-Induced Her3-ss-Gluc Assay. The procedure:
Transfected cells were selected for resistance to the selectable markers Hygromycin and Blasticidin to create a stable cell line that contained the HER3-ss+4aa/Gaussia Luciferase cDNA insert whose expression was regulated under the T-REx™ system. The day before assay, cells were trypsinized and plated in 384-well tissue culture plates. The next day, compound dilutions in DMSO/media containing doxycycline were added to the wells and incubated at 37° C., 5% CO2.
as §2

The test system of assay [5] is human multiple myeloma cell line NCI-H929. The assay is described as follows: H929 Cell Viability Assay. As to conditions: read-out: 48 hr H929 Viability Celltiter-Glo: Mean EC50. On the procedure:
Plates were incubated at 37° C., 5% CO2 for 48 hours. After 48 hours, Celltiter-Glo® (Promega) was added to each well and luciferase signal was quantified using Tecan Infinite M1000 Pro for cell viability determination.
as §2

For assay [6], the system named is IL-2-FL/Gaussia Luciferase. Briefly: Dox Induced IL2-FL-Gluc Assay. The procedure:
as §1, with “IL-2-FL/Gaussia” for “PD1-ss+10aa/Gaussia”, “T-RExTM” for “T-REx™”, “CO2. […] For chemical structures that include one or more stereoisomers, but are illustrated without indicating stereochemistry, the assay data refers to a mixture of stereoisomers.” for “CO2.”

[7] abbreviates: 24 hr doxycycline induction, 293FRT/TO cells, Gaussia luciferase signal; read-out: 24 hr Dox Inducible PD1ssGluc 293FRT/TO: Mean IC50.
The mark [8] stands for this setting: 24 hr doxycycline induction, 293FRT/TO cells, Gaussia luciferase signal; read-out: 24 hr Dox Inducible TNFaFLGluc 293FRT/TO: Mean IC50.
The mark [9] stands for this setting: U-266, 48 hr, U266B1 cells, Celltiter-Glo.
Setting [10] is: 24 hr doxycycline induction, 293FRT/TO cells, Gaussia luciferase signal; read-out: 24 hr Dox Inducible Her3(ss + 4)Gluc 293FRT/TO: Mean IC50.
Where [11] appears, read: 48 hr, NCI-H929 cells, Celltiter-Glo.
[12] abbreviates: 24 hr doxycycline induction, 293FRT/TO cells, Gaussia luciferase signal; read-out: 24 hr Dox Inducible IL2FLGIuc 293FRT/TO: Mean IC50.
Setting [13] is: 24 hr, doxycycline-induced, 293FRT/TO cells; read-out: 24 hr Dox Inducible PD1ssGluc 293FRT/TO: Mean IC50.
The mark [14] stands for this setting: 24 hr, doxycycline-induced, 293FRT/TO cells; read-out: 24 hr Dox Inducible TNFaFLGluc 293FRT/TO: Mean IC50.
The mark [15] stands for this setting: 24 hr, doxycycline-induced, 293FRT/TO cells; read-out: 24 hr Dox Inducible Her3(ss + 4)Gluc 293FRT/TO: Mean IC50.
[16] abbreviates: 24 hr, doxycycline-induced, 293FRT/TO cells; read-out: 24 hr Dox Inducible IL2FLGIuc 293FRT/TO: Mean IC50.

Structures are written as SMILES. Where two headings read alike, the source gives them in different places. Bounds are passed on as bounds.

Take `CC(C)OC(C)(C)c1csc(NC(=O)c2cccn2CCCc2cccnc2)n1` [Compound A190, N-(4-(2-isopropoxypropan-2-yl)thiazol-2-yl)-1-(3-(pyridin-3-yl)propyl)-1H-pyrrole-2-carboxamide]: the IC50 in assay [1] (setting [7]) was 5.23 µM; in assay [2] (setting [8]), over 25 µM; in assay [4] (setting [10]), over 18.1 µM; in assay [6] (setting [12]), 3.44 µM. Further, the EC50 in assay [3] (setting [9]) and in assay [5] (setting [11]) was over 25 µM throughout.

As to `CC(C)OC(C)(C)c1csc(NC(=O)c2c(Cl)ccn2Cc2ccncc2)n1` [Compound A86, 3-chloro-N-(4-(2-isopropoxypropan-2-yl)thiazol-2-yl)-1-(pyridin-4-ylmethyl)-1H-pyrrole-2-carboxamide], the IC50 was 8 µM in assay [1] (setting [7]), over 25 µM in assay [2] (setting [8]), over 25 µM in assay [4] (setting [10]) and over 25 µM in assay [6] (setting [12]). The 50% effective concentration (EC50) in assay [3] (setting [9]) and in assay [5] (setting [11]) was over 25 µM throughout.

In the case of `CCc1cc(NC(=O)c2cccn2Cc2ccncc2)ccc1C` [Compound B10, N-(3-ethyl-4-methylphenyl)-1-(pyridin-4-ylmethyl)-1H-pyrrole-2-carboxamide], the IC50 in assay [1] (setting [13]) is 11.9 µM; in assay [2] (setting [14]), over 25 µM; in assay [4] (setting [15]) it was over 25 µM; in assay [6] (setting [16]) it was over 25 µM. Further, the EC50 in assay [3] (setting [9]) and in assay [5] (setting [11]) was over 25 µM each time.

Take `CC(C)OC(C)(C)c1csc(NC(=O)c2cccn2CC2CC(=O)N(C)C2)n1` (stereo not drawn) [Compound A210, N-(4-(2-isopropoxypropan-2-yl)thiazol-2-yl)-1-((1-methyl-5-oxopyrrolidin-3-yl)methyl)-1H-pyrrole-2-carboxamide]: the IC50 in assay [1] (read-out: 24 hr Dox Inducible PD1ssGluc 293FRT/TO: Mean IC50; 24 hr doxycycline induction, 293FRT/TO cells, Gaussia luciferase signal) was over 25 µM; in assay [2] (read-out: 24 hr Dox Inducible TNFaFLGluc 293FRT/TO: Mean IC50; 24 hr doxycycline induction, 293FRT/TO cells, Gaussia luciferase signal) it was over 25 µM; in assay [4] (read-out: 24 hr Dox Inducible Her3(ss + 4)Gluc 293FRT/TO: Mean IC50; 24 hr doxycycline induction, 293FRT/TO cells, Gaussia luciferase signal), over 25 µM; in assay [6] (read-out: 24 hr Dox Inducible IL2FLGIuc 293FRT/TO: Mean IC50; 24 hr doxycycline induction, 293FRT/TO cells, Gaussia luciferase signal) it was over 25 µM. Also, the half-maximal effective concentration (EC50) in assay [3] (setting [9]) and in assay [5] (setting [11]) was over 25 µM in each case.

Take `O=C(Nc1nc(Cc2ccccc2)cs1)c1cccn1CCCc1ccncc1` [Compound A184, N-(4-benzylthiazol-2-yl)-1-(3-(pyridin-4-yl)propyl)-1H-pyrrole-2-carboxamide]: the IC50 was determined as 0.448 µM in assay [1] (setting [7]), 2.41 µM in assay [2] (setting [8]), 0.807 µM in assay [4] (setting [10]) and 1.08 µM in assay [6] (setting [12]). The EC50 in assay [3] (setting [9]) is 13.3 µM; in assay [5] (setting [11]), 11.8 µM.

Regarding `CC(OC(C)(C)c1csc(NC(=O)c2cccn2Cc2ccncc2)n1)c1ccc(Cl)cc1` (stereo not drawn) [Compound A5, N-(4-(2-(1-(4-chlorophenyl)ethoxy)propan-2-yl)thiazol-2-yl)-1-(pyridin-4-ylmethyl)-1H-pyrrole-2-carboxamide], the IC50 in assay [1] (setting [7]) came to 0.043 µM; in assay [2] (setting [8]) it was 0.81 µM; in assay [4] (setting [10]), 0.102 µM; in assay [6] (setting [12]) it was 0.145 µM. Besides, the EC50 in assay [3] (setting [9]) is 23.9 µM; in assay [5] (setting [11]) it was 2.44 µM.

Take `O=C(Nc1nc(/C=C/C2CCCCC2)cs1)c1cccn1Cc1ccncc1` [Compound A152, N-(4-(2-cyclohexylvinyl)thiazol-2-yl)-1-(pyridin-4-ylmethyl)-1H-pyrrole-2-carboxamide]: the IC50 is 0.085 µM in assay [1] (setting [7]), 1.58 µM in assay [2] (setting [8]), 0.28 µM in assay [4] (setting [10]) and 0.854 µM in assay [6] (setting [12]). In addition, the figures for the EC50 in assay [3] (setting [9]) and in assay [5] (setting [11]) were over 25 µM and 11 µM, respectively.

Turning to `COc1ccc(C#Cc2csc(NC(=O)c3cccn3Cc3ccncc3)n2)cc1` [Compound A143], the IC50 in assay [1] (setting [7]) is 0.089 µM; in assay [2] (setting [8]), 1.58 µM; in assay [4] (setting [10]), 0.423 µM; in assay [6] (setting [12]), 0.617 µM. Also, the figures for the EC50 in assay [3] (setting [9]) and in assay [5] (setting [11]) were over 19.8 µM and 15.2 µM, respectively.

Regarding `CC(C)(C)c1csc(NC(=O)c2cccn2Cc2ccccc2)n1` [Compound B27, 1-benzyl-N-(4-(tert-butyl)thiazol-2-yl)-1H-pyrrole-2-carboxamide], the IC50 in assay [1] (setting [13]), in assay [2] (setting [14]), in assay [4] (setting [15]) and in assay [6] (setting [16]) was over 25 µM each time. For the same compound, the EC50 in assay [3] (setting [9]) and in assay [5] (setting [11]) was over 25 µM in each case.

In the case of `O=C(Nc1nc([C@@H]2CCC(=O)N2Cc2ccccc2)cs1)c1cccn1Cc1ccncc1` [Compound A320], the IC50 was 10.4 µM in assay [1] (setting [13]), over 25 µM in assay [2] (setting [14]), over 25 µM in assay [4] (setting [15]) and over 25 µM in assay [6] (setting [16]). The EC50 in assay [3] (setting [9]) and in assay [5] (setting [11]) was over 25 µM throughout.

For `CC(C)OC(C)(C)c1csc(NC(=O)c2cccn2CCCc2ccccc2Cl)n1` [Compound A68, 1-(3-(2-chlorophenyl)propyl)-N-(4-(2-isopropoxypropan-2-yl)thiazol-2-yl)-1H-pyrrole-2-carboxamide], the IC50 in assay [1] (setting [7]) is 2.07 µM; in assay [2] (setting [8]), over 25 µM; in assay [4] (setting [10]), 2.73 µM; in assay [6] (setting [12]), 2.76 µM. For the same compound, the 50% effective concentration (EC50) in assay [3] (setting [9]) and in assay [5] (setting [11]) was over 25 µM each time.

Consider `CCc1nc(NC(=O)c2cc3cc(Cl)ccc3n2Cc2ccncc2)sc1C` [Compound B29, 5-chloro-N-(4-ethyl-5-methylthiazol-2-yl)-1-(pyridin-4-ylmethyl)-1H-indole-2-carboxamide], for which the IC50 in assay [1] (setting [13]), in assay [2] (setting [14]) and in assay [6] (setting [16]) was over 25 µM each time. Moreover, the EC50 was over 25 µM in assay [3] (U-266, 48 h) and over 25 µM in assay [5] (NCI-H929, 48 h).

Regarding `CC(C)(C)c1csc(NC(=O)c2cc3cc(Cl)ccc3n2Cc2ccncc2)n1` [Compound B28, N-(4-(tert-butyl)thiazol-2-yl)-5-chloro-1-(pyridin-4-ylmethyl)-1H-indole-2-carboxamide], the IC50 in assay [1] (setting [13]), in assay [2] (setting [14]) and in assay [6] (setting [16]) was over 25 µM each time. The concentration giving a half-maximal response (EC50) in assay [3] (U-266, 48 h) is over 25 µM; in assay [5] (NCI-H929, 48 h) it was 23.4 µM.

`CC(C)OC(C)(C)c1csc(NC(=O)[C@@H]2CCCN2Cc2ccncc2)n1` [Compound A130, (S)-N-(4-(2-isopropoxypropan-2-yl)thiazol-2-yl)-1-(pyridin-4-ylmethyl)pyrrolidine-2-carboxamide]: the IC50 in assay [1] (setting [7]), in assay [2] (setting [8]), in assay [4] (setting [10]) and in assay [6] (setting [12]) was over 25 µM in each case. The EC50 in assay [5] (setting [11]) was over 25 µM.
